Patent publication US20250250252A1, “PIPERIDINYLBENZONITRILE DERIVATIVES AS INHIBITORS OF GLUTAMINYL-PEPTIDE CYCLOTRANSFERASE AND GLUTAMINYL-PEPTIDE CYCLOTRANSFERASE LIKE PROTEIN” (Boehringer Ingelheim International GmbH, priority 2024, published 2025)

Columns and labels:
CACO-2 cells = assay: Assay C: Permeability in CACO-2 cells; format: in vitro ADME; settings: pair comparison without/with 4-fluoropiperidyl
Protocol: (§1) Caco-2 cells (1-2×10^5 cells/1 cm^2 area) are seeded on filter inserts (Costar transwell polycarbonate or PET filters, 0.4 μm pore size) and cultured (DMEM) for 10 to 25 days. Compounds are dissolved in appropriate solvent (like DMSO, 1-20 mM stock solutions). […] The transport solution (TL) is applied to the apical or basolateral donor side for measuring A-B or B-A permeability (3 filter replicates), respectively. Samples are collected at the start and end of experiment from the donor and at various time intervals for up to 2 hours also from the receiver side for concentration measurement by HPLC-MS/MS or scintillation counting. Sampled receiver volumes are replaced with fresh receiver solution.
(§2) Efflux ratio (ER)=permeability B-A/permeability A-B

Ramos cells = settings: disclosed in WO 2024/020517 [00698]; read-out: cellular activity in Ramos cells IC50; cited from earlier work
[1] = system: SIRPα signalling induced by A549 cells; assay: Assay B: SIRPα signalling assay using A549 cells; format: cell-based; settings: Homo sapiens, read-out: Inhibition of SIRPα signalling induced by A549 cells: IC50
Protocol: Two cell types are independently used: the Raji cell line (lymphoblast-like human cell line derived from B lymphocytes from a Burkitt's lymphoma patient in 1963) and A549 cells (adenocarcinomic human alveolar basal epithelial cells).
Test compounds were dissolved in 100% DMSO and serially diluted into a white 384-well microtiter cell culture plate (PerkinElmer #60076780 in case of Raji assay; PDL-coated plates Greiner #781945 in case of A549 assay). 5000 Raji cells (ATCC #CC86) or 5000 A549 cells (ATCC #CCL-185) in Assay Complete Cell Plating reagent 30 (DiscoverX 93-0563R30B) were added per well. The assay plate was incubated for 48 h at 37° C., 95% humidity and 5% CO2. 15000 reporter cells (Jurkat PathHunter SIRPαV1, DiscoverX #93-1135C19) were added to each well, and the plate was incubated for 5 h at 37° C., 95% humidity and 5% CO2. Bioassay reagent 1 of the PathHunter Bioassay detection kit (DiscoverX 93-0001) was added to each well of the plate using a multichannel pipette followed by a 15 min incubation at room temperature. Afterwards bioassay reagent 2 was added followed by 60 min incubation at room temperature (incubation in the dark).
The analysis of the data was performed using the luminescence signal generated by betagalactosidase in the PathHunter reporter cell line. The luminescence measurement was done using a Pherastar Multi-Mode Reader. Dose-response curves & IC50 data were calculated with 4-parameter sigmoidal dose response formula.

murine hepatocytes = assay: Assay E: Stability in murine hepatocytes; format: in vitro ADME, mouse; settings: 1 μM
Protocol: The metabolic degradation of the test compound is assayed in a murine hepatocyte suspension.
Murine hepatocytes (typically cryopreserved) are incubated in an appropriate buffer system (e.g. Dulbecco's modified eagle medium plus 3.5 μg glucagon/500 mL, 2.5 mg insulin/500 mL and 3.75 mg/500 mL hydrocortison) containing 5% species serum.
Following a (typically) 30 min preincubation in an incubator (37° C., 10% CO2) 5 μl of test compound solution (80 μM; from 2 mM in DMSO stock solution diluted 1:25 with medium) are added into 395 μl hepatocyte suspension (cell density in the range 0.25-5 Mio cells/mL, typically 1 Mio cells/mL; final concentration of test compound 1 μM, final DMSO concentration 0.05%).
The cells are incubated for six hours (incubator, orbital shaker) and samples (2 μl) are taken at 0, 0.5, 1, 2, 4 and 6 hours. Samples are transferred into acetonitrile and pelleted by centrifugation (5 min). The supernatant is transferred to a new 96-deepwell plate, evaporated under nitrogen and resuspended.
CLint is calculated as follows CL_[…]=Dose/AUC=(C0/CD)/(AUD+clast/k)×1000/60. C0: initial concentration in the incubation [μM], CD: cell density of vital cells [10e6cells/mL], AUD: area under the data [μM×h], clast: concentration of last data point [μM], k: slope of the regression line for parent decline [h−1].
The calculated in vitro hepatic intrinsic clearance can be scaled up to the intrinsic in vivo hepatic Clearance and used to predict hepatic in vivo blood clearance (CL) by the use of a liver model (well stirred model).
CL_[…]_INVIVO[ml/min/kg]=(CL_[…][μL/min/10e6cells]×hepatocellularity[10e6cells/g liver]×liver factor[g/kg bodyweight])/1000
CL[ml/min/kg]=CL_[…]_INVIVO[ml/min/kg]×hepatic blood flow[ml/min/kg]/(CL_[…]_INVIVO[ml/min/kg]+hepatic blood flow[ml/min/kg])
Hepatocellularity,mouse:120×10e6cells/g liver
Liver factor,mouse:55 g/kg bodyweight
Blood flow,mouse:90 ml/(min×kg)

[2] = Assay C: Permeability in CACO-2 cells; format: in vitro ADME; settings: human, Assay C; for efflux ratio: Caco-2, pH 7.2, permeability B-A/permeability A-B, read-out: Efflux Ratio; for Papp A→B: pH 7.2, CACO-2 cells
Protocol: as §1, §2

QPCTL = QPCTL (Homo sapiens (Human), UniProt Q9NXS2); assay: Assay A: biochemical QPCTL activity assay (MALDI-TOF MS); settings: read-out: Inhibition of QPCTL: IC50
Protocol: (§3) QPCT or QPCTL dependent conversion of N-terminal glutamine to pyroglutamate of CD47 was monitored via MALDI-TOF MS. Test compounds were dissolved in 100% DMSO and serially diluted into clear 1,536-well microtiter plates. Enzymatic reactions were set up in assay buffer containing 20 mM Tris pH 7.5, 0.1 mM TCEP, 0.01% BSA, and 0.001% Tween20. […] The plates were incubated for 10 min in a humidified incubator at 24° C. Subsequently, 2.5 μL of CD47 peptide substrate surrogate (^19[…]^33) was added to each well (final concentration: 10 μM for QPCTL/20 μM for QPCT). The plates were mixed for 30 sec at 1,000 rpm and subsequently incubated for 40 min in a humidified incubator at 24° C. […] The plates were sealed with an adhesive foil, mixed for 30 s at 1,000 rpm and stored at room temperature until preparation of the MALDI target plates. […] QPCT or QPCTL activity was monitored by calculating the ratio between product and internal standard signals followed by normalization to high (100% activity) and low (0% activity) controls. Determination of compound potencies was obtained by fitting the dose-response data to a four-parameter logistical equation.

CYP3A4 mRNA = assay: Assay D: CYP induction screening assay in primary human hepatocytes; format: in vitro ADME; settings: 48 h
Protocol: Cryopreserved plateable human hepatocytes (single donor, BioIVT) were thawed and plated in Collagen-I coated 96-well-plates at a cell density of 0.07 million cells per well.
After a 6 h attachment period, the seeding medium was replaced by serum-free William's medium E supplemented with Matrigel (0.25 mg/ml) and allowed to recover overnight. 24 h post-seeding, serum-free Williams E medium containing the test compound at a final concentration of 10 μM and a final DMSO content of 0.1% and 0.1% DMSO (solvents treated control), respectively, was added to predefined wells. Exposure solutions were renewed after 24 h.
After 48 h of treatment in total, the effect of the test compounds on CYP3A4 mRNA expression was assessed using the QuantiGene Plex Gene Expression Assay. Hepatocytes were lysed and total RNA was extracted using the QuantiGene Sample Processing Kit according to the instructions of the manufacturer.
mRNA quantification was conducted using a customized QuantiGene Plex Panel to analyse CYP3A4 and the housekeeper genes RPL32, EIF4E2 and GUSB according to the instructions of the manufacturer and measured on a Luminex™ instrument. Signal was reported as median fluorescence intensity (MFI), which is proportional to the number of target RNA molecules present in the sample.
For calculation of CYP3A4 mRNA induction, the signal for CYP3A4 was normalized against the geometric mean of the signal obtained for the housekeeper genes for hepatocytes exposed to test compounds in relation to solvent-treated samples according to the following equation:
n-fold induction=(MFI CYP3A4 (treated)/Xgeo MFI (RPL32,EIF4E2,GUSB))/(MFI CYP3A4 (solvent control)/Xgeo MFI (RPL32,EIF4E2,GUSB))

QPCT = QPCT (Homo sapiens (Human), UniProt Q16769); assay: Assay A: biochemical QPCT activity assay (MALDI-TOF MS); settings: read-out: Inhibition of QPCT: IC50
Protocol: as §3

isolated QPCTL = isolated QPCTL (Homo sapiens (Human), UniProt Q9NXS2); settings: disclosed in WO 2023/205173 [00470]; read-out: inhibitory activity on isolated QPCTL IC50; cited from earlier work
A549 cells = settings: disclosed in WO 2023/205173 [00470]; read-out: cellular activity in A549 cells EC50; cited from earlier work
[3] = system: SIRPα signalling induced by Raji cells; assay: Assay B: SIRPα signalling assay using Raji cells; format: cell-based; settings: Homo sapiens, read-out: Inhibition of SIRPα signalling induced by Raji cells: IC50
Protocol: Bioassay reagent 1 of the PathHunter Bioassay detection kit (DiscoverX 93-0001) was added to each well of the plate using a multichannel pipette followed by a 15 min incubation at room temperature. Afterwards bioassay reagent 2 was added followed by 60 min incubation at room temperature (incubation in the dark).
The analysis of the data was performed using the luminescence signal generated by betagalactosidase in the PathHunter reporter cell line. The luminescence measurement was done using a Pherastar Multi-Mode Reader.

Sequence of QPCT (Q16769 29-361): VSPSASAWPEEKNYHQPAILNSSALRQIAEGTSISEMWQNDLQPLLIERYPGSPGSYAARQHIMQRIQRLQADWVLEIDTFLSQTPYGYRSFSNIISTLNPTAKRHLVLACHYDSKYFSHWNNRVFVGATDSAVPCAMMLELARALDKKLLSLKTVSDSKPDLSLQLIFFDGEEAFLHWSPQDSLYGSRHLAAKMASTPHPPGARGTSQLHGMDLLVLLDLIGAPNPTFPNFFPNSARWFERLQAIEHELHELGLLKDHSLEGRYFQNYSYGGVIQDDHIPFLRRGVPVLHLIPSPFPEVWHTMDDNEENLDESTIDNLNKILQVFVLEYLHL
Sequence of QPCTL (Q9NXS2 whole entry): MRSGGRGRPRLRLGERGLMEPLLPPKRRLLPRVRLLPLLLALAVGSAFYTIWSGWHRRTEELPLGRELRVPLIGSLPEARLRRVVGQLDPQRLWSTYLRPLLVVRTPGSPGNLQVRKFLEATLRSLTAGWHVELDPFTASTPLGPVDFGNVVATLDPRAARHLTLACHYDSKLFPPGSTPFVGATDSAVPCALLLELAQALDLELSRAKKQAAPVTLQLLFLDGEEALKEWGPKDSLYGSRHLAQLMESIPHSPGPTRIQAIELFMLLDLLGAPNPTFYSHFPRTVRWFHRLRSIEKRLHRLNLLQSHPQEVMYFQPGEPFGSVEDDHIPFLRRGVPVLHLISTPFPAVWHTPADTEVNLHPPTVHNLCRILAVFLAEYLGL
Sequence of isolated QPCTL (Q9NXS2 whole entry, species assumed): as the sequence (Q9NXS2 whole entry) above

Cn1cnnc1C1CCN(c2c(C#N)cccc2-c2ccc(F)nc2)CC1 [(1)/QP5020, reference compound]
CACO2 Perm. (CACO-2 cells): 28.0 10^−6 cm/sec | IC50 (Ramos cells): < 100 nM | IC50 [1]: 8 nM | Mouse Hepatocyte Stability QH (murine hepatocytes): 82%

Cn1c(N)nnc1C1CCN(c2c(C#N)cccc2-c2ccc(F)nc2)CC1 [Compound 14, reference compound]
efflux ratio [2]: 22.2 | Papp A→B [2]: 0.7 ×10⁻⁶ cm/s | IC50 (QPCTL): 1 nM | n-fold induction of CYP3A4 at 10 μM (CYP3A4 mRNA): 1.9 n-fold | IC50 (QPCT): < 1 nM | Mouse Hepatocyte Stability QH (murine hepatocytes): 31% | IC50 (isolated QPCTL): < 1000 nM | EC50 (A549 cells): < 1000 nM

Cn1cnnc1C1(F)CCN(c2c(C#N)cc(-c3cnc(C(F)(F)F)nc3)cc2-c2ccc(F)nc2)CC1 [Example 9]
efflux ratio [2]: 5.2 | Papp A→B [2]: 4.8 ×10⁻⁶ cm/s | IC50 (QPCTL): 3 nM | IC50 [3]: 108 nM | IC50 [1]: 67 nM | n-fold induction of CYP3A4 at 10 μM (CYP3A4 mRNA): 1.4 n-fold | IC50 (QPCT): 6 nM | Mouse Hepatocyte Stability QH (murine hepatocytes): 20%
